How the values were obtained:
[1] = cited from earlier work
[2] = Administration of cromolyn to rats: serum pharmacokinetics by HPLC; assay type: in vivo, Sprague-Dawley rats
Experimental: Male Sprague-Dawley rats weighing 225-275 grams were fasted for 24 hours. Rats were anesthized by intra-muscular injection with ketamine and thorazine. Experimental groups were dosed by oral gavage or by intravenous injection. Blood samples were collected serially via the tail artery. Serum obtained from whole blood was acidified and cromolyn extracted with ethyl acetate. The ethyl acetate was added to phosphate buffer or back extraction of cromolyn. Pharmacokinetic parameters were determined from extracted serum by HPLC.

[3] = system: airway resistance of the sheep after challenge with ascaris; assay: Airway resistance after ascaris challenge in sheep given oral cromolyn
Experimental: A control formulation without cromolyn was also administered to an additional group. The biological effect of the cromolyn was assessed using changes in airway resistance of the sheep after challenge with ascaris.

wheal and flare reaction = assay: Wheal and flare reaction after intracutaneous injection of codeine/histamine or allergen/histamine; assay type: in vivo, human; conditions: stimulated with codeine
Experimental: From the literature there are indications that nasal and lung mast cells are more sensitive to cromolyn. […] Healthy subjects received codeine/histamine to induce wheal and flare reaction, and allergic subjects received allergen/histamine to induce wheal and flare reaction.
Wheal and flare reaction was read 15 min. after the injections of codeine/histamine or allergen/histamine, traced by pen onto transparent cellophane and the length and width of the reaction was measured. Wheal and flare reaction was measured for Group 1 (healthy subjects) after intracutaneous injection of codeine/histamine before the morning dose on day 1, at 45 minutes after the morning dose on days 1, 2, 4, 6, 8 and 10, and at 4 and 8 hours after the morning dose on days 2, 4 and 10. Wheal and flare reaction was measured for Group 2 (subjects with allergies) after injection with allergen/histamine before the morning dose on day 1, at 60 minutes after the morning dose on days 4 and 10, and at 8 hours after the morning dose on day 4.

[4] = cited from earlier work; remark: listed apart in the source
[5] = Single escalating dose study of Cromolyn/SNAC capsules: plasma pharmacokinetics of cromolyn and SNAC; conditions: with SNAC
Experimental: This study was a randomized, open label, oral, single escalating dose administration study in healthy, fasted volunteers.
The study was carried out in two parts. […] Safety and pharmacokinetic measures were collected and evaluated following each dose.
On day one of each study treatment period, medication (capsules) was administered following an 8-hour overnight fast. The capsules were swallowed with up to 120 mL of water to the subjects in an upright position.
The process could be summarized as follows: First, sieve SNAC powder through a screen, or delump it using a pestle/mortar.

[6] = Multiple dose study (twice daily for ten days): plasma pharmacokinetics of cromolyn and SNAC
Experimental: Two groups of human males were defined: group 1 consisted of 12 healthy male volunteers, and group 2 had 12 allergic male volunteers. […] The dosing regimen is illustrated in Table 7 below.
Each subject received oral dosing of the study medication twice a day for nine days. On the last day (i.e., day 10), only the morning dose was administered. The capsules were administered with up to 200 mL of water to the subjects in an upright position. The first dose of each day was administered following an overnight fast, and the second dose of each day was administered at least 1 hour before a meal or 4 hours after a meal. No food was allowed for at least 4 hours before the oral dosing.
Pharmacodynamics were measured for Group 1 and 2 by measuring the length and width of the wheal and flare reaction, and permanent records were generated by marking on transparent tapes and/or by photographs. For Group 2 only, pharmacodynamics were also measured by VAS scores and PNIF measurements before and after nasal provocation test.

[7] = Single dose study: safety and tolerability; assay type: in vivo, human; conditions: SNAC administered alone
Experimental: Cromolyn sodium was orally administered to healthy human subjects in a study designed to evaluate the safety, tolerability, oral absorption and pharmacokinetics data following various doses of cromolyn orally administered in combination with the delivery agent SNAC as capsules. […] This study was a randomized, open label, oral, single escalating dose administration study in healthy, fasted volunteers.
On day one of each study treatment period, medication (capsules) was administered following an 8-hour overnight fast. The capsules were swallowed with up to 120 mL of water to the subjects in an upright position. After each dosing, safety, and pharmacokinetic measures were taken, and cromolyn concentrations were evaluated.

[8] = serum cromolyn, Cromolyn 1.5 mg/kg IV

## 5,5′-[(2-hydroxy-1,3-propanediyl)bis-(oxy)]4-oxo-4H-1-benzopyran-2-carboxylic acid [cromolyn]
[1]; in vivo
  dose eliminated unchanged in the feces: Roughly 98%
[1]; inhalation dose of 20 mg
  absolute bioavailability: about 8%
[1]; inhalation
  inhaled dose that reaches the lungs: 5-10%
[1]; oral cromolyn without the delivery agents
  systemic bioavailability: approximately 1%
[2]; control group, cromolyn alone
  serum cromolyn concentrations: No detectable
[2]; intravenous cromolyn 1.5 mg/kg
  area under the serum concentration-time curve (AUC): 20.4 µg·min/mL
  peak serum concentration (Cmax): 1300 ng/mL
  time of peak serum concentration (Tmax): 0 h
[2]; [8]
  Avg. AUC: 20.4 µg·min/mL
  Avg. Cmax: 1300 ng/mL
  Tmax: 0 h
[3]; 100 mg/kg cromolyn and 300 mg/kg delivery agent 12 hours prior to challenge
  mean protection vs. the peak control response: 77%
[3]; Drug Trial, Means, 300 mg/kg CR-1 & 100 mg/kg Cromolyn oral 12 hrs. before Ag. challenge
  P-Acaris % (change in airway resistance): approximately 157%
Wheal and flare reaction
  effects on skin mast cell degranulation (wheal and flare): no significant effects
[4]
  solubility in water: freely soluble in water
[5]
  mean elimination half-life: 60 to 120 min
  time of maximum plasma concentrations post-dose: about 20 minutes
[6]; after each drug administration
  time within which plasma concentrations declined to negligible levels: ≤ 4 h
[6]; cromolyn administered without SNAC
  oral absorption (plasma concentration): < 2.3 ng/mL
[6]; cromolyn given in combination with 600 mg SNAC
  mean plasma concentrations: up to 65 ng/mL
[6]; cromolyn given orally in combination with SNAC, fasting male volunteers
  time of peak concentrations after drug administration: approximately 20 minutes
[6]; multiple dose study
  plasma half-life: ~45 min

## O=C([O-])CCCCCCCNC(=O)c1ccccc1O.[Na+] [SNAC, Sodium N-[8-(2-hydroxybenzoyl)amino]caprylate]
[7]
  effect on human subjects: did not display any significant effect
[6]; male, human, in vivo
  Tmax: ~30 min
  half-life: ~25 min
[6]; twice daily dosing
  accumulation during multiple dose treatment: no accumulation
